Two compounds from ChEMBL document CHEMBL1201862, “PubChem BioAssay data set” (2004) can be followed below.

Each structure is given as a SMILES string. Active and inactive are the calls of the source.

Test [1] has as its target T1, Cyclin-dependent kinase 5/CDK5 activator 1 (Homo sapiens, UniProt Q00535). Nature of the test: blockade of human CDK5 activity – biochemical, cherry-picked samples, set 2, dose response (AID 504545).
In test [2] the target is Dual specificity tyrosine-phosphorylation-regulated kinase 1A (Rattus norvegicus, UniProt Q63470). Type of test: biochemical, Homo sapiens.
Test [3] has as its target Glycogen synthase kinase-3 beta (Homo sapiens, UniProt P49841). Nature of the test: inhibition of human GSK3B activity – biochemical, microfluidics, dry powder samples, set 2, dose response (AID 623989). Format: functional.
Test [4] deals with Glycogen synthase kinase-3 alpha (Homo sapiens, UniProt P49840). Nature of the test: GSK3A enzyme blockers, homolog specificity check – biochemical, microfluidics, dry powder samples, set 2, selectivity assay for GSK3beta inhibitor project, dose response (AID 623978). Type of test: functional.
In test [5] the target is T1, Cyclin-dependent kinase 5/CDK5 activator 1. Nature of the test: inhibitors of human CDK5 activity – biochemical, microfluidic mobility shift, dry powder, set 2, selectivity assay for GSK3beta inhibitor project, dose response (AID 623979). Format: functional.
The nature of test [6]: viability loss in HepG2 hepatoma cells – cell-based, ATP luminescence, cherry-pick, activator set 2, cytotoxicity control, dose response (AID 1053143). Format: functional.
Test [7] in a line: viability loss in THP-1 monocytes – THP-1 cells, cytotoxicity control for Vif-APOBEC3G degradation inhibitor project, dose response (AID 1117359). Type of test: functional. The conditions noted are these: THP-1.
For test [8], the target named is Protein kinase C zeta type (Homo sapiens, UniProt Q05513). Type of test: functional.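 Further: measured as one member of a broad kinase profiling panel.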
Test [9] concerns the target Eukaryotic elongation factor 2 kinase (Homo sapiens, UniProt O00418). Format: functional.
Test [10] concerns the target Testis-specific serine/threonine-protein kinase 2 (Homo sapiens, UniProt Q96PF2). Format: functional.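 Further: part of the Navigating the Kinome panel, target entry STK22B.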
Test [11] deals with Cell division cycle 7-related protein kinase (Homo sapiens, UniProt O00311). Format: functional.
The target of test [12] is Protein kinase C gamma type (Homo sapiens, UniProt P05129). Type of test: functional.
The target of test [13] is Proto-oncogene tyrosine-protein kinase Src (Homo sapiens, UniProt P12931). Format: functional.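 Further: SRC entry within a kinome-wide kinase profiling panel.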
The target in test [14] is Dual specificity tyrosine-phosphorylation-regulated kinase 3 (Homo sapiens, UniProt O43781). Type of test: functional.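 Further: measured as one member of a broad kinase panel.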
Test [15] concerns the target MAP kinase-activated protein kinase 3 (Homo sapiens, UniProt Q16644). Type of test: functional.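 Further: value comes from a kinome-wide profiling panel in which MAPKAPK3 is one of the panel members.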
The target in test [16] is G protein-coupled receptor kinase 5 (Homo sapiens, UniProt P34947). Nature of the test: Navigating the Kinome. Panel member name: GPRK5. Format: functional.
For test [17], the target named is Dual specificity tyrosine-phosphorylation-regulated kinase 4 (Homo sapiens, UniProt Q9NR20). Type of test: functional.
In test [18] the target is Protein-tyrosine kinase 6 (Homo sapiens, UniProt Q13882). Type of test: functional.
Test [19] has as its target Tyrosine-protein kinase Fyn (Homo sapiens, UniProt P06241). Type of test: functional.
In test [20] the target is Cyclin-dependent kinase 1 (Homo sapiens, UniProt P06493). Type of test: functional.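 Further: Kinome-wide panel profiling, with the target listed as panel member CDC2.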
The target in test [21] is Lymphokine-activated killer T-cell-originated protein kinase (Homo sapiens, UniProt Q96KB5). Type of test: functional.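 Further: value comes from a kinase panel screen in which TOPK was one of the panel members.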
Test [22] has as its target Tyrosine-protein kinase receptor UFO (Homo sapiens, UniProt P30530). Type of test: functional.

T1 sequence (Q00535 whole entry): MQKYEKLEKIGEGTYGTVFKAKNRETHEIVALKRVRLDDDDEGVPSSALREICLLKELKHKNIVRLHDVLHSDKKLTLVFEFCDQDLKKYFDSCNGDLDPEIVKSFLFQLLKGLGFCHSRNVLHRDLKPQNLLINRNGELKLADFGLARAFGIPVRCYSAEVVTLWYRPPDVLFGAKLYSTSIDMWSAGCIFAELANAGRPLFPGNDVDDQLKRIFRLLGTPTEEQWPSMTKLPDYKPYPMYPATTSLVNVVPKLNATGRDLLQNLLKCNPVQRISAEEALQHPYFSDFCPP
T1 sequence (Q15078 whole entry, further chain): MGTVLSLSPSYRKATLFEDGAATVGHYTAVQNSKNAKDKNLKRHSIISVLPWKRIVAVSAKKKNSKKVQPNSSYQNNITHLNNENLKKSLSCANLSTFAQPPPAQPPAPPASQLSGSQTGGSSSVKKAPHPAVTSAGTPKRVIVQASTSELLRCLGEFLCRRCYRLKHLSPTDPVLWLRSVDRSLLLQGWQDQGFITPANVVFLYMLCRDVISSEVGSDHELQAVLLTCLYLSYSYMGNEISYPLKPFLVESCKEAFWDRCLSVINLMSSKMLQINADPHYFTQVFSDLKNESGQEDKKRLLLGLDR
Sequence of Cell division cycle 7-related protein kinase (O00311 whole entry): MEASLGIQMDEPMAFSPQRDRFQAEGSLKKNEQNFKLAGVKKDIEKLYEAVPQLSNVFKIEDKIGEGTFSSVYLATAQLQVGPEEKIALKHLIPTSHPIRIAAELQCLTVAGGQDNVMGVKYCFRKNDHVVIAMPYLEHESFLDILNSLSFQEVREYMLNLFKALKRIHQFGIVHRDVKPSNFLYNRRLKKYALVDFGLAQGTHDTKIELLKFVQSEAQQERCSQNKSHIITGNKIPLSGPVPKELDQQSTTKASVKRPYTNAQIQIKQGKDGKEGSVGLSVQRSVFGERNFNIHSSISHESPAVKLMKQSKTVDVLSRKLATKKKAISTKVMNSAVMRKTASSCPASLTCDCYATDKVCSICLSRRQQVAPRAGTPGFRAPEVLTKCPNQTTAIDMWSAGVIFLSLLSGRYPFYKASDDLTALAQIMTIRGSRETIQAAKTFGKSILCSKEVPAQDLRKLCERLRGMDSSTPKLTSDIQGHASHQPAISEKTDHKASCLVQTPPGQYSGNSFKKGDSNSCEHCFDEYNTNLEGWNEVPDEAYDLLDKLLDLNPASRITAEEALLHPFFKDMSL
Sequence of Tyrosine-protein kinase receptor UFO (P30530 whole entry): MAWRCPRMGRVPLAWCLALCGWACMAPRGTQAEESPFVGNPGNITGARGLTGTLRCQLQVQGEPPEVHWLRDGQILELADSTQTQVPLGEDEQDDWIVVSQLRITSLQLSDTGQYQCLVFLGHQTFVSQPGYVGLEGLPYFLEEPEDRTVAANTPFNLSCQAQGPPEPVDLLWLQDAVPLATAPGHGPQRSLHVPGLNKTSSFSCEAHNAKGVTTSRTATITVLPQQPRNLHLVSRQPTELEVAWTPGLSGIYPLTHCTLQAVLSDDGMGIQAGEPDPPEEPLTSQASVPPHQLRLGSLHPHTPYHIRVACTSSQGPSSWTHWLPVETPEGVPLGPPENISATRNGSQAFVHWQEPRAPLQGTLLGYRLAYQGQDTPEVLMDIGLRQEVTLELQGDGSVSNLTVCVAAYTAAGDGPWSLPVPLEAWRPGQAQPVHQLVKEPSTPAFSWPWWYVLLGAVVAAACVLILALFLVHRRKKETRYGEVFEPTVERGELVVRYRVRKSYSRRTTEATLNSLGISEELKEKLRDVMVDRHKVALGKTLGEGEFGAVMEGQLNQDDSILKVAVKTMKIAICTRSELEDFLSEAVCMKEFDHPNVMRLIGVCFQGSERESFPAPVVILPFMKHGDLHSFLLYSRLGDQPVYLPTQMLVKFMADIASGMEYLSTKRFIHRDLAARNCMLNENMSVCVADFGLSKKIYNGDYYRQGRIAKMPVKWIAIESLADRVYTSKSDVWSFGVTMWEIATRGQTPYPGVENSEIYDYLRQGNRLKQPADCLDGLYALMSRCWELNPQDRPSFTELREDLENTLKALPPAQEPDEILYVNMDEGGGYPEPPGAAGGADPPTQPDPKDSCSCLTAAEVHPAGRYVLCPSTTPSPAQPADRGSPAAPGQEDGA
Sequence of Glycogen synthase kinase-3 alpha (P49840 whole entry): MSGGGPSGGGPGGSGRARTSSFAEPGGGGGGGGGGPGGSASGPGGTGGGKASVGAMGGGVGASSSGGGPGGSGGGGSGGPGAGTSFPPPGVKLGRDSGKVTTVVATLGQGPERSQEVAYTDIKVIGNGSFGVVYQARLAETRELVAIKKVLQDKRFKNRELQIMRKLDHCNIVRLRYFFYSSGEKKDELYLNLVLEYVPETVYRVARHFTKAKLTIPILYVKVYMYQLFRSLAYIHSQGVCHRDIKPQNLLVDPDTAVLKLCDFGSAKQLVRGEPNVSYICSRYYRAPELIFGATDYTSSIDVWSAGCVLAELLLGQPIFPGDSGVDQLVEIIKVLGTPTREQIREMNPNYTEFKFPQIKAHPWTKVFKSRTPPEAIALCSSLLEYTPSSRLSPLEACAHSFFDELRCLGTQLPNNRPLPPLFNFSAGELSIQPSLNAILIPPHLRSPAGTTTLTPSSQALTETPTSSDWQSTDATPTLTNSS
Sequence of Tyrosine-protein kinase Fyn (P06241 whole entry): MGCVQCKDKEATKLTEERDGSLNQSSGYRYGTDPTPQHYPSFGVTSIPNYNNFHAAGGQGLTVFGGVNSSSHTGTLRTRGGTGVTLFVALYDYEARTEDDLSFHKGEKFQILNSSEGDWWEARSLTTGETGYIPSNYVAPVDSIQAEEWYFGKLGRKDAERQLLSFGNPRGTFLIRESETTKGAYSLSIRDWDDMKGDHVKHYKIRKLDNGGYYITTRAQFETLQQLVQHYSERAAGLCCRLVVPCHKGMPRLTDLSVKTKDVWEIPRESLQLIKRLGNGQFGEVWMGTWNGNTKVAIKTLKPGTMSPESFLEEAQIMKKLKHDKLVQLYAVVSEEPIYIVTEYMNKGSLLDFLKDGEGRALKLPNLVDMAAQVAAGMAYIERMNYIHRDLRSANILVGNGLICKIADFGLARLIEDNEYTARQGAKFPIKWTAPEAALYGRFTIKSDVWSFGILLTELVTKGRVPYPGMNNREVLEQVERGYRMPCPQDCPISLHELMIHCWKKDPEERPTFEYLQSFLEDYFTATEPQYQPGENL
Sequence of Dual specificity tyrosine-phosphorylation-regulated kinase 3 (O43781 whole entry): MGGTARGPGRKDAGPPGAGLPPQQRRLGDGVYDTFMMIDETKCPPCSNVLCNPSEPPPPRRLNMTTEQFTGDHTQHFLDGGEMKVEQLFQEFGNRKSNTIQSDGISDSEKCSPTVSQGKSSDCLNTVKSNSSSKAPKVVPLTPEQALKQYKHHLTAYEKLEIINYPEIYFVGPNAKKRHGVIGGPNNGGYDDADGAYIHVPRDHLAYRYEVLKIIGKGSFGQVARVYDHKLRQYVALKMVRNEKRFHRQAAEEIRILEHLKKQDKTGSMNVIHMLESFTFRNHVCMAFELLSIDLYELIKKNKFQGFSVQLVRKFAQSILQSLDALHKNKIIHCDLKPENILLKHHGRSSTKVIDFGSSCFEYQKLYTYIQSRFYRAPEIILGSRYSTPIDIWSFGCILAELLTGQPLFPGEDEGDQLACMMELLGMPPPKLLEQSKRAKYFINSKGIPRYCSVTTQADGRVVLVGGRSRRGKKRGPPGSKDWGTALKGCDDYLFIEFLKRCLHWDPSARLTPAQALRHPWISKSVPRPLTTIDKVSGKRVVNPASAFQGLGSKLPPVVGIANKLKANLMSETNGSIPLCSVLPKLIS
Sequence of Protein-tyrosine kinase 6 (Q13882 whole entry): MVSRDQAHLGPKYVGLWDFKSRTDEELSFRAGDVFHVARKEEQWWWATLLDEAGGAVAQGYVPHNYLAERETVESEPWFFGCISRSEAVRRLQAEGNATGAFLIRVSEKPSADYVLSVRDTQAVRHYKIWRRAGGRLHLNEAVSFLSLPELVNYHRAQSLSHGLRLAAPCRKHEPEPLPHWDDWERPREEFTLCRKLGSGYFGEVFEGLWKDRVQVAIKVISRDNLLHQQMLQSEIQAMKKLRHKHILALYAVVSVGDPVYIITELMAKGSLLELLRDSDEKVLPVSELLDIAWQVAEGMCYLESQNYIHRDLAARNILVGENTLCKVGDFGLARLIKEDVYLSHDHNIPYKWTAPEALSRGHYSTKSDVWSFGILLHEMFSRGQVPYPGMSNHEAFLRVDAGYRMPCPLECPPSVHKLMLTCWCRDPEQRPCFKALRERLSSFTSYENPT

Broadly, the AC50 is the concentration giving half of the maximal activity seen. Broadly, the CC50 is the concentration giving 50% cytotoxicity. For the compound `Nc1nc(Nc2ccccc2)sc1C(=O)c1ccccc1`, the AC50 in test [1] was 2.27 µM (active); in test [2], 0.811 µM (active); in test [3], 0.036 µM (active); in test [4], 0.168 µM (active); in test [5], 0.19 µM (active); in [6], 18.9 µM (active). In test [7], the CC50 was 14 µM (active).
For orientation: Ki means the equilibrium dissociation constant of an inhibitor or competing ligand from its target. Regarding `COc1cc2c(Oc3ccc4[nH]c(C)cc4c3F)ncnc2cc1OCCCN1CCCC1` [CEDIRANIB], the Ki in test [8] was > 7.94 µM (inactive); in test [9], > 3.98 µM (inactive); in [10], > 1.58 µM (inactive); in test [11], > 1.26 µM (inactive); in test [12] it was > 7.94 µM (inactive); in [13], 0.0501 µM (active). For the same compound, the Ki in [14] was > 6.31 µM (inactive); in [15], > 10 µM (inactive); in test [16], > 3.98 µM (inactive); in [17] it was > 7.94 µM (inactive); in test [18], 0.0398 µM (active); in test [19], 0.501 µM (active). In addition, the Ki in [20] was > 7.94 µM (inactive); in test [21], > 10 µM (inactive); in [22] it was 0.316 µM (active).
